{"source": "BindingDB's records for patent US10323000", "about": "(Merck Patent, 2019)", "target": "T1, P2X purinoceptor 7 (Homo sapiens, UniProt Q99572)", "T1 sequence (Q99572 whole entry)": "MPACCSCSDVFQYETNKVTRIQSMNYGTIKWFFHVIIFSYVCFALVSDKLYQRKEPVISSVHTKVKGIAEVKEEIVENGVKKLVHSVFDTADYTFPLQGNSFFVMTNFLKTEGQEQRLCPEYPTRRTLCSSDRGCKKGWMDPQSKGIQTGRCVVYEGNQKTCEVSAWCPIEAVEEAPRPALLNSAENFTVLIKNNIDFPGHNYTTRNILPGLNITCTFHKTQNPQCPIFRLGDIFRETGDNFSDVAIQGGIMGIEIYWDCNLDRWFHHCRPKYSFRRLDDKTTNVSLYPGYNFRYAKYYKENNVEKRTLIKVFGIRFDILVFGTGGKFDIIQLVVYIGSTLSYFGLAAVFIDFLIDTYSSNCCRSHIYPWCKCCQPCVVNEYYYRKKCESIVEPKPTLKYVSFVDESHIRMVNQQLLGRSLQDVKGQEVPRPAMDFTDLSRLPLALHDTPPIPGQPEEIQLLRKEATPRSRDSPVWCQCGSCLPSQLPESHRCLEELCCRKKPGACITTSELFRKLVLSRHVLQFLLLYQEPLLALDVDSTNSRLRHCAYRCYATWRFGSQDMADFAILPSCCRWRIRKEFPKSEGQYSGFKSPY", "experiment": "Pore Permeation Assay", "procedure": "Agonist-induced pore formation was determined by measuring cellular uptake of YO PRO fluorescence dye in HEK293 transfected with human P2X7 receptor. A HEK293 cell over expressing human P2X7 was harvested using HQTase reagent to detach the cells from T75 cm flask. The harvested cells are centrifuged @1200 rpm for 5 min at room temperature. The viability of cells was determined by Trypan blue dye and the cells are plated @10,000 cell/well in 50 ul volume in a 384W BD Poly lysine coated plate and incubated overnight at 37 C. […] The plate was centrifuged at 1000 rpm for 5 seconds and incubated at room temperature for 30 minutes. The uptake of YO PRO dye into the cells was measured using Envision Fluorescence plate reader instrument (Perkin Elmer).", "data": [{"smiles": "CCN(C)C(=O)Cn1cc(C(=O)NCC2CCC(F)(F)CC2)c2c(Cl)cccc21", "note": "[US10323000, Compound 163]", "values": [{"measurement": "IC50", "result": "< 10", "unit": "nM"}]}]}
